Test results taken from article PMC12591484 (PLOS One, 2025).

Assays:
Test in all cases: Drug protection from pCMBS modification (SCAMP)
Format in all cases: cell-based
[1] = target: T1, α1β3L231Cγ2L GABAA receptors (Homo sapiens, UniProt P14867+P18507+P28472, L256C); conditions: β3L231C (β–); pCMBS 100 µM x 30 s; […] etomidate, 8 µM R-mTFD-MPAB or 10 µM pTFD-di-iPr-BnOH; n = 5
T1 construct: expressed in transfected cells; host or cells: Xenopus oocytes injected with capped mRNA, 1α:1β:5γ
Protocol: (§1) Experiments were performed in ND-96 buffer at room temperature (20–22°C). Oocytes were placed in a low-volume (30µl) flow chamber and impaled with borosilicate microelectrodes filled with 3M KCl (resistance 0.5–3 MΩ) and voltage-clamped at −50 mV (model OC-725C; Warner Instruments, Hamden, CT, USA). Superfusate solutions in ND-96 were delivered at 2 ml/min from glass syringe reservoirs via computer-controlled valves (VC-8; Warner Instruments), a micro-manifold (ALA-VM8; ALA Scientific Instruments, Farmingdale, NY, USA), and PTFE tubing. Currents were digitized at 200 Hz on a computer running ClampEx v8.0 software (Molecular Devices, San Jose, CA, USA). Digitized traces were filtered with a 10-Hz low-pass Bessel function, leak corrected and analyzed for peak amplitude off-line using Clampfit v8 software (Molecular Devices).
(§2) Drug protection from pCMBS modification was assessed under pCMBS exposure conditions that produced approximately half of the maximal modification ratio for each mutant receptor, and a least a value of 3. This approach balanced the magnitude of functional modification signals (smaller with less pCMBS exposure) against the challenge of using a reversibly bound ligand to competitively block an irreversible covalent cysteine-modifying reaction. […] Each oocyte was used in a single SCAMP experiment. […] Etomidate was used as a positive control for anesthetic protection in α1M236C and β3M286C mutants and as a negative control in α1S270C, α1A291C, β3L231C, γ2S301C, γ2I242C, and γ2L246C mutants. R-mTFD-MPAB was used as a positive control in α1S270C, α1A291C, β3L231C, and γ2LS301C mutants and as a negative control in α1M236C and β3M286C mutants. For each cysteine mutant and protective drug combination, five oocytes were studied.
(§3) Non-linear least squares fits and statistical analyses were performed in Prism 10.4.0. (GraphPad Software, San Diego, CA, USA). […] Protection (steric inhibition of pCMBS modification) was inferred when anesthetics produced significant reductions in modification ratios relative to control (no anesthetic) values. The statistical significance threshold was p < 0.05.

[2] = target: T2, α1S270Cβ3γ2L GABAA receptors (Homo sapiens, UniProt P14867+P18507+P28472, S297C); conditions: α1S270C (α+); pCMBS 1 µM x 90 s; […] etomidate, 8 µM R-mTFD-MPAB or 10 µM pTFD-di-iPr-BnOH; n = 5
T2 construct: expressed in transfected cells; host or cells: Xenopus oocytes injected with capped mRNA, 1α:1β:5γ
T2 sequence (P14867 28-456 S297C, one chain of several): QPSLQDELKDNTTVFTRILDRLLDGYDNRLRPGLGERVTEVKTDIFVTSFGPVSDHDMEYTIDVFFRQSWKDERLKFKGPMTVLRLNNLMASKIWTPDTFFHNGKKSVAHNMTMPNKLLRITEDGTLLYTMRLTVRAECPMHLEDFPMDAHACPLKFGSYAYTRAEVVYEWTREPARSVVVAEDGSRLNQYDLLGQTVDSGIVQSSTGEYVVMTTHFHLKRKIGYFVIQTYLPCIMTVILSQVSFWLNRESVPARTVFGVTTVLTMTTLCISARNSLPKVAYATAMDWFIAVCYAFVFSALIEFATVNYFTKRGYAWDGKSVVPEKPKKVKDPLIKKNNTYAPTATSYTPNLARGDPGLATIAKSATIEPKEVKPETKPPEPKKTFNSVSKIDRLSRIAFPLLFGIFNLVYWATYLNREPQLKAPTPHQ
T2 sequence (P18507 40-475, one chain of several): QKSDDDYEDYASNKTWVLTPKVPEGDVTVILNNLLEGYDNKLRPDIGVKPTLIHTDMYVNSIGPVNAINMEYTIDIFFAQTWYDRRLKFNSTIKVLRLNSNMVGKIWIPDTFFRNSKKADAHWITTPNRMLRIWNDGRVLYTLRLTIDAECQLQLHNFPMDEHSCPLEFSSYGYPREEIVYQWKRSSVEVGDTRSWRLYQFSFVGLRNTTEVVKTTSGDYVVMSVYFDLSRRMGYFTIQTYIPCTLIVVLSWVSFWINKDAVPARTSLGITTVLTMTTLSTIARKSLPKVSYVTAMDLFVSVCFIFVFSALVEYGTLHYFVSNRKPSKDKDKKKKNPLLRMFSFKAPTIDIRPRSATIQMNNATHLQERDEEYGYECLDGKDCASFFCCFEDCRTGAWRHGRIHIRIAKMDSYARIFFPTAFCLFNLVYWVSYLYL
Protocol: as §1, §2, §3

[3] = target: T3, α1β3γ2S301C GABAA receptors (Homo sapiens, UniProt P14867+P18507+P28472, S340C); conditions: γ2S301C (γ+); pCMBS 100 µM x 90 s; […] etomidate, 8 µM R-mTFD-MPAB or 10 µM pTFD-di-iPr-BnOH; n = 5
T3 construct: expressed in transfected cells; host or cells: Xenopus oocytes injected with capped mRNAs mixed 1α:1β:5γ
T3 sequence (P14867 28-456): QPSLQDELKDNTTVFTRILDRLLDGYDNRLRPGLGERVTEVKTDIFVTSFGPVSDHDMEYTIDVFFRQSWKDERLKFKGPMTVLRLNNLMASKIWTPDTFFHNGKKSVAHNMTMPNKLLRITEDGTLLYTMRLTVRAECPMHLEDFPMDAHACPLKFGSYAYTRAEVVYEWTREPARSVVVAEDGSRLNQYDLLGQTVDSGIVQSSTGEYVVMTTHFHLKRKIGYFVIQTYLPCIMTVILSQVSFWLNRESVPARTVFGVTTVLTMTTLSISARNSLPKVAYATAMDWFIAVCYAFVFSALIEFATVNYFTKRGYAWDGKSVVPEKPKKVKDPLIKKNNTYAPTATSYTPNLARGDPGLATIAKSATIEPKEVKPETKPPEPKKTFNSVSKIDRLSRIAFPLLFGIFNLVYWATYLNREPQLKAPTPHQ
T3 sequence (P28472 26-473): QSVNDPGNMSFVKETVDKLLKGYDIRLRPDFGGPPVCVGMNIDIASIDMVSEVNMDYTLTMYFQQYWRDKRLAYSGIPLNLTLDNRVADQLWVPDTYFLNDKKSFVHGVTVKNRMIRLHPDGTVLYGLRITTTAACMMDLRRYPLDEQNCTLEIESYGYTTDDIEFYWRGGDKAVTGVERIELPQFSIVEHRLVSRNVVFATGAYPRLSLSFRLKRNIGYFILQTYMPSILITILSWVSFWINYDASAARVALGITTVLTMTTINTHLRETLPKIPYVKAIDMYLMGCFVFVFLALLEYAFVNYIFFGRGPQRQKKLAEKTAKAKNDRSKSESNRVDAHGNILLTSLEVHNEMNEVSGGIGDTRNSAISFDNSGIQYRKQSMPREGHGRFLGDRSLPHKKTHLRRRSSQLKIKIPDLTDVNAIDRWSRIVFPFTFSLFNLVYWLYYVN
T3 sequence (P18507 40-475 S340C): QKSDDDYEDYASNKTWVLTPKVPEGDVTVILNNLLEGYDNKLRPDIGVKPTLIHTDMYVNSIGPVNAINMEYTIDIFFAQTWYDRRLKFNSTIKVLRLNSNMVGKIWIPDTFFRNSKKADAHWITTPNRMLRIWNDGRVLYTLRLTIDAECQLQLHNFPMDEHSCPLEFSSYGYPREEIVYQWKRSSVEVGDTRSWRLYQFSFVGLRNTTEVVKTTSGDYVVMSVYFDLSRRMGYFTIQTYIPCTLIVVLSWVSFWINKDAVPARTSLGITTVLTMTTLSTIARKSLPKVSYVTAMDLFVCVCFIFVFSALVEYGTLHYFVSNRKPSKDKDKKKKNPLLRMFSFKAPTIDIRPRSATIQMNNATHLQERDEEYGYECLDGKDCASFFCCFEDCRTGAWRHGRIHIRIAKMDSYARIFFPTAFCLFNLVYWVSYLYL
Protocol: as §1, §2, §3

[4] = target: T4, α1M236Cβ3γ2L GABAA receptors (Homo sapiens, UniProt P14867+P18507+P28472, M263C); conditions: α1M236C (α–); pCMBS 10 µM x 30 s; […] etomidate, 8 µM R-mTFD-MPAB or 10 µM pTFD-di-iPr-BnOH; n = 5
T4 construct: expressed in transfected cells; host or cells: Xenopus oocytes injected with capped mRNA, 1α:1β:5γ
T4 sequence (P14867 28-456 M263C, one chain of several): as the sequence (P14867 28-456 S297C, one chain of several) above, with M236C, C270S counted along it
T4 sequence (P18507 40-475, one chain of several): as the sequence (P18507 40-475, one chain of several) above
Protocol: as §1, §2, §3

[5] = target: T5, α1β3M286Cγ2L GABAA receptors (Homo sapiens, UniProt P14867+P18507+P28472, M311C); conditions: β3M286C (β+); pCMBS 1 µM x 30 s; […] etomidate, 8 µM R-mTFD-MPAB or 10 µM pTFD-di-iPr-BnOH; n = 5
T5 construct: expressed in transfected cells; host or cells: Xenopus oocytes injected with capped mRNA, 1α:1β:5γ
T5 sequence (P28472 26-473 M311C, one chain of several): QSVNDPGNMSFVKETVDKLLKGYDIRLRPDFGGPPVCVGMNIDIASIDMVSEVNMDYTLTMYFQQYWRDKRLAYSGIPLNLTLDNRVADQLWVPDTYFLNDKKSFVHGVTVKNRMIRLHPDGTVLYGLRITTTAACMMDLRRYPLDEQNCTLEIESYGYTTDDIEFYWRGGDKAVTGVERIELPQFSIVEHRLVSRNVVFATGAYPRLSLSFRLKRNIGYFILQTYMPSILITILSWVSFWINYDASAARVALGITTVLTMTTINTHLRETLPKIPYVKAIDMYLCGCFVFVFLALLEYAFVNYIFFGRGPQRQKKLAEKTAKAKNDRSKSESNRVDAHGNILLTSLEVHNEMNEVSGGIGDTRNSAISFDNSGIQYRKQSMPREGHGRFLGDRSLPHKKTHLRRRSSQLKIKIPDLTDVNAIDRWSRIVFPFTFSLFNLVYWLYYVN
T5 sequence (P18507 40-475, one chain of several): as the sequence (P18507 40-475, one chain of several) above
Protocol: as §1, §2, §3

T1 sequence (P28472 26-473 L256C, one chain of several): as the sequence (P28472 26-473 M311C, one chain of several) above, with L231C, C286M counted along it
T1 sequence (P18507 40-475, one chain of several): as the sequence (P18507 40-475, one chain of several) above

SMILES | protection from pCMBS modification (significant reduction of modification ratio vs control, p < 0.05) [1] | protection from pCMBS modification (significant reduction of modification ratio vs control, p < 0.05) [2] | protection from pCMBS modification (significant reduction of modification ratio vs control, p < 0.05) [3] | protection from pCMBS modification (significant reduction of modification ratio vs control, p < 0.05) [4] | protection from pCMBS modification (significant reduction of modification ratio vs control, p < 0.05) [5]
C=CCC1(c2cccc(C3(C(F)(F)F)N=N3)c2)C(=O)NC(=O)N(C)C1=O (centres unmarked) [R-mTFD-MPAB, R-5-allyl-1-methyl-5-(m-trifluoromethyl-diazirynylphenyl) barbituric acid] | protection was also inferred | protection was inferred | protection was inferred |  | 
CCOC(=O)c1cncn1[C@H](C)c1ccccc1 [etomidate, R-etomidate] |  |  |  | protection was inferred | protection was inferred
